Results published in patent US20220386606A1, “SPECIFICALLY SUBSTITUTED 3-PHENYL-5-SPIROCYCLOPENTYL-3-PYRROLIN-2-ONES AND THEIR USE AS HERBICIDES” (Bayer Aktiengesellschaft, priority 2019, published 2022).

What was measured:
VIOTR [1] = assay: Pre-emergence herbicidal action against VIOTR; type: in vivo, Viola tricolor; details: 320 g/ha
Method in brief: (§1)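 Visual scoring after 3 weeks in the greenhouse gives percent activity (100% = dead, 0% = like untreated). Compounds, formulated as WP or EC, were applied to the soil surface over freshly sown seeds in sandy loam, water rate 600 to 800 L/ha plus 0.2% wetting agent.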

AVEFA [2] = assay: Pre-emergence herbicidal action against AVEFA; type: in vivo, Avena fatua; details: 320 g/ha, scored visually after 3 weeks vs untreated controls
Method in brief: as §1

ECHCG [3] = assay: Post-emergence herbicidal action against ECHCG; type: in vivo, Echinochloa crus-galli; details: 80 g/ha, visual assessment about 3 weeks after treatment vs untreated controls
Method in brief: (§2)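 Weeds were grown in sandy loam in a greenhouse and treated at the one-leaf stage, 2 to 3 weeks after sowing. WP or EC formulations were sprayed onto green parts at 600 to 800 l/ha water with 0.2% wetting agent. Visual % action versus untreated controls was scored after about 3 weeks.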

AVEFA [4] = assay: Post-emergence herbicidal action against AVEFA; type: in vivo, Avena fatua; details: 80 g/ha, visual assessment after about 3 weeks
Method in brief: as §2

AMARE [5] = assay: Post-emergence herbicidal action against AMARE; type: in vivo, Amaranthus retroflexus; details: 80 g/ha, visual assessment about 3 weeks after treatment vs untreated controls
Procedure: (§3) Seeds of monocotyledonous and dicotyledonous weed and crop plants are laid out in sandy loam soil in wood-fiber pots, covered with soil and cultivated in a greenhouse under good growth conditions. 2 to 3 weeks after sowing, the test plants are treated at the one-leaf stage. The compounds of the invention, formulated in the form of wettable powders (WP) or as emulsion concentrates (EC), are then sprayed onto the green parts of the plants as aqueous suspension or emulsion at a water application rate equating to 600 to 800 l/ha with addition of 0.2% wetting agent. After the test plants have been left to stand in the greenhouse under optimal growth conditions for about 3 weeks, the action of the preparations is assessed visually in comparison to untreated controls (herbicidal action in percent (%): 100% activity=the plants have died, 0% activity=like control plants).

ALOMY [6] = assay: Pre-emergence herbicidal action against ALOMY; type: in vivo, Alopecurus myosuroides; details: 320 g/ha, scored visually after 3 weeks vs untreated controls
Method in brief: as §1

SETVI [7] = assay: Pre-emergence herbicidal action against SETVI; type: in vivo, Setaria viridis; details: 320 g/ha, scored visually after 3 weeks vs untreated controls
Method in brief: as §1

ALOMY [8] = assay: Post-emergence herbicidal action against ALOMY; type: in vivo, Alopecurus myosuroides; details: 80 g/ha, visual assessment after about 3 weeks
Method in brief: as §2

ECHCG [9] = assay: Pre-emergence herbicidal action against ECHCG; type: in vivo, Echinochloa crus-galli; details: 320 g/ha, scored visually after 3 weeks vs untreated controls
Method in brief: as §1

AMARE [10] = assay: Pre-emergence herbicidal action against AMARE; type: in vivo, Amaranthus retroflexus; details: 320 g/ha
Method in brief: as §1

ABUTH [11] = assay: Post-emergence herbicidal action against ABUTH; type: in vivo, Abutylon threophrasti; details: 80 g/ha, visual assessment about 3 weeks after treatment vs untreated controls
Method in brief: as §2

DIGSA [12] = assay: Pre-emergence herbicidal action against DIGSA; type: in vivo, Digitaria sanguinalis; details: 320 g/ha, scored visually after 3 weeks vs untreated controls
Method in brief: as §1

LOLRI [13] = assay: Pre-emergence herbicidal action against LOLRI (Table 8, titled post-emergence at 320 g/ha); type: in vivo, Lolium rigidum; details: table stands in the pre-emergence section
Method in brief: as §1

DIGSA [14] = assay: Post-emergence herbicidal action against DIGSA; type: in vivo, Digitaria sanguinalis; details: 80 g/ha, visual assessment about 3 weeks after treatment vs untreated controls
Method in brief: as §2

LOLRI [15] = assay: Post-emergence herbicidal action against LOLRI; type: in vivo, Lolium rigidum; details: 80 g/ha, visual assessment about 3 weeks after treatment vs untreated controls
Method in brief: as §2

SETVI [16] = assay: Post-emergence herbicidal action against SETVI; type: in vivo, Setaria viridis; details: 80 g/ha, visual assessment about 3 weeks after treatment vs untreated controls
Method in brief: as §2

ABUTH [17] = assay: Pre-emergence herbicidal action against ABUTH; type: in vivo, Abutylon threophrasti; details: 320 g/ha
From the text: Seeds of monocotyledonous and dicotyledonous weed plants and crop plants are laid out in sandy loam soil in wood-fiber pots and covered with soil. The compounds of the invention, formulated in the form of wettable powders (WP) or as emulsion concentrates (EC), are then applied to the surface of the covering soil as aqueous suspension or emulsion at a water application rate equating to 600 to 800 L/ha with addition of 0.2% wetting agent.
After the treatment, the pots are placed in a greenhouse and kept under good growth conditions for the trial plants. The damage to the test plants is scored visually after a test period of 3 weeks by comparison with untreated controls (herbicidal activity in percent (%): 100% activity=the plants have died, 0% activity=like control plants).

VIOTR [18] = assay: Post-emergence herbicidal action against VIOTR; type: in vivo, Viola tricolor; details: 80 g/ha, visual assessment about 3 weeks after treatment vs untreated controls
Procedure: as §3

VERPE = assay: Pre-emergence herbicidal action against VERPE; type: in vivo, Veronica persica; details: 320 g/ha
Method in brief: as §1

POLCO = assay: Pre-emergence herbicidal action against POLCO; type: in vivo, Polygonum convolvulus; details: 320 g/ha
Method in brief: as §1

MATIN = assay: Pre-emergence herbicidal action against MATIN; type: in vivo; details: 320 g/ha
Method in brief: as §1

HORMU = assay: Post-emergence herbicidal action against HORMU; type: in vivo, Hordeum murinum; details: 80 g/ha, visual assessment about 3 weeks after treatment vs untreated controls
Procedure: as §3

Row | Structure (SMILES) | Pre-emergence action against VIOTR in % (VIOTR [1]) [%] | Pre-emergence action against AVEFA in % (AVEFA [2]) [%] | Post-emergence action against ECHCG in % (ECHCG [3]) [%] | Post-emergence action against AVEFA in % (AVEFA [4]) [%] | Post-emergence action against AMARE in % (AMARE [5]) [%] | Pre-emergence action against ALOMY in % (ALOMY [6]) [%] | Pre-emergence action against SETVI in % (SETVI [7]) [%] | Post-emergence action against ALOMY in % (ALOMY [8]) [%] | Pre-emergence action against ECHCG in % (ECHCG [9]) [%] | Pre-emergence action against AMARE in % (AMARE [10]) [%] | Post-emergence action against ABUTH in % (ABUTH [11]) [%] | Pre-emergence action against DIGSA in % (DIGSA [12]) [%] | Pre-emergence herbicidal action against LOLRI in % (LOLRI [13]) [%] | Post-emergence action against DIGSA in % (DIGSA [14]) [%] | Post-emergence action against LOLRI in % (LOLRI [15]) [%] | Post-emergence action against SETVI in % (SETVI [16]) [%] | Pre-emergence action against ABUTH in % (ABUTH [17]) [%] | Post-emergence action against VIOTR in % (VIOTR [18]) [%] | further results
1 | CC#Cc1cc(C)c(C2=C(O)C3(CCC(COC)C3)NC2=O)c(F)c1 (centres unmarked) [Example I-36] | 80 | 80 | 100 | 100 | 80 | 100 | 100 | 100 | 100 | 90 | 80 | 100 | 100 | 100 | 100 | – | – | – | –
2 | CC#Cc1cc(F)c(C2=C(OC(=O)OCC)C3(CCC(COC)C3)NC2=O)c(OC)c1 (centres unmarked) [Example P-62] | – | 90 | 100 | 90 | 80 | 100 | 100 | 90 | 100 | – | 80 | 100 | 100 | 100 | 90 | 100 | – | – | –
3 | CC#Cc1cc(F)c(C2=C(O)C3(CCC(COC)C3)NC2=O)c(OC)c1 (centres unmarked) [Example I-40] | – | 100 | 100 | 90 | 80 | 100 | 100 | 100 | 100 | – | – | 100 | 90 | 100 | 90 | 100 | – | – | –
4 | CC#Cc1cc(C)c(C2=C(OC(=O)OCC)C3(CCC(COCC)C3)NC2=O)c(Br)c1 (centres unmarked) [Example P-34] | 100 | 100 | 100 | 90 | – | 100 | 100 | 100 | 100 | – | – | 100 | 100 | 100 | 90 | 100 | 90 | 80 | Pre-emergence action against VERPE in % (VERPE): 80%
5 | C=CCOCC1CCC2(C1)NC(=O)C(c1c(C)cc(C#CC)cc1Br)=C2OC(=O)OCC (centres unmarked) [Example P-88] | 100 | 90 | 100 | – | 80 | 100 | 100 | 100 | 100 | – | – | 100 | 100 | 90 | 100 | 100 | 80 | – | Pre-emergence action against VERPE in % (VERPE): 100%
6 | CC#Cc1cc(C)c(C2=C(O)C3(CCC(COC)C3)NC2=O)c(Br)c1 (centres unmarked) [Example I-19] | 100 | 100 | 100 | 90 | – | 100 | 100 | 100 | 100 | 100 | 90 | 100 | 100 | 100 | 100 | 100 | – | 80 | Pre-emergence action against POLCO in % (POLCO): 100%; Pre-emergence action against MATIN in % (MATIN): 80%
7 | CC#Cc1cc(C)c(C2=C(OC(=O)OCC)C3(CCC(COC)C3)NC2=O)c(Cl)c1 (centres unmarked) [Example P-18] | – | – | 100 | 100 | 80 | – | – | 100 | – | – | 80 | – | – | 100 | 100 | 100 | – | – | Post-emergence action against HORMU in % (HORMU): 100%
8 | CC#Cc1cc(C)c(C2=C(OC(=O)C(C)C)C3(CCC(COCC)C3)NC2=O)c(Cl)c1 (centres unmarked) [Example P-17] | – | – | 100 | 100 | – | – | – | 100 | – | – | 90 | – | – | 100 | 100 | 100 | – | 80 | Post-emergence action against HORMU in % (HORMU): 100%
9 | CC#Cc1cc(C)c(C2=C(OC(=O)C(C)C)C3(CCC(COC)C3)NC2=O)c(F)c1 (centres unmarked) [Example P-58] | 100 | 90 | 100 | 90 | 80 | 100 | 100 | 100 | 100 | 90 | 80 | 100 | 100 | 100 | 100 | – | 80 | – | –
10 | CC#Cc1cc(C)c(C2=C(O)C3(CCC(COC)C3)NC2=O)c(OC)c1 (centres unmarked) [Example I-31] | 80 | 80 | 100 | 100 | 80 | 100 | 100 | 100 | 100 | – | 80 | 100 | 100 | 100 | 100 | 100 | – | – | –
